# pIC50: −log10 of the molar value. Like-named read-outs stand apart in the source and are kept apart here.
# Key:
# p110γ = p110γ (Homo sapiens (Human), UniProt P48736); test: PI 3-Kinase (human) HTRF assay, p110γ; format: biochemical; conditions: read-out: PI3K γ IC50
# p110δ/p85α = p110δ/p85α (Homo sapiens (Human), UniProt O00329); test: PI 3-Kinase (human) HTRF assay, p110δ/p85α; format: biochemical; conditions: read-out: PI3K δ IC50
# p110α/p85α = p110α/p85α (Homo sapiens (Human), UniProt P42336); test: PI 3-Kinase (human) HTRF assay, p110α/p85α; format: biochemical; conditions: read-out: PI3K α IC50
# recombinant mTOR = recombinant mTOR (Homo sapiens (Human), UniProt P42345); test: mTOR inhibition assay (radiometric or LanthaScreen TR-FRET); format: biochemical; conditions: read-out: MTORC IC50
# Sequence of recombinant mTOR (P42345 1360-2549): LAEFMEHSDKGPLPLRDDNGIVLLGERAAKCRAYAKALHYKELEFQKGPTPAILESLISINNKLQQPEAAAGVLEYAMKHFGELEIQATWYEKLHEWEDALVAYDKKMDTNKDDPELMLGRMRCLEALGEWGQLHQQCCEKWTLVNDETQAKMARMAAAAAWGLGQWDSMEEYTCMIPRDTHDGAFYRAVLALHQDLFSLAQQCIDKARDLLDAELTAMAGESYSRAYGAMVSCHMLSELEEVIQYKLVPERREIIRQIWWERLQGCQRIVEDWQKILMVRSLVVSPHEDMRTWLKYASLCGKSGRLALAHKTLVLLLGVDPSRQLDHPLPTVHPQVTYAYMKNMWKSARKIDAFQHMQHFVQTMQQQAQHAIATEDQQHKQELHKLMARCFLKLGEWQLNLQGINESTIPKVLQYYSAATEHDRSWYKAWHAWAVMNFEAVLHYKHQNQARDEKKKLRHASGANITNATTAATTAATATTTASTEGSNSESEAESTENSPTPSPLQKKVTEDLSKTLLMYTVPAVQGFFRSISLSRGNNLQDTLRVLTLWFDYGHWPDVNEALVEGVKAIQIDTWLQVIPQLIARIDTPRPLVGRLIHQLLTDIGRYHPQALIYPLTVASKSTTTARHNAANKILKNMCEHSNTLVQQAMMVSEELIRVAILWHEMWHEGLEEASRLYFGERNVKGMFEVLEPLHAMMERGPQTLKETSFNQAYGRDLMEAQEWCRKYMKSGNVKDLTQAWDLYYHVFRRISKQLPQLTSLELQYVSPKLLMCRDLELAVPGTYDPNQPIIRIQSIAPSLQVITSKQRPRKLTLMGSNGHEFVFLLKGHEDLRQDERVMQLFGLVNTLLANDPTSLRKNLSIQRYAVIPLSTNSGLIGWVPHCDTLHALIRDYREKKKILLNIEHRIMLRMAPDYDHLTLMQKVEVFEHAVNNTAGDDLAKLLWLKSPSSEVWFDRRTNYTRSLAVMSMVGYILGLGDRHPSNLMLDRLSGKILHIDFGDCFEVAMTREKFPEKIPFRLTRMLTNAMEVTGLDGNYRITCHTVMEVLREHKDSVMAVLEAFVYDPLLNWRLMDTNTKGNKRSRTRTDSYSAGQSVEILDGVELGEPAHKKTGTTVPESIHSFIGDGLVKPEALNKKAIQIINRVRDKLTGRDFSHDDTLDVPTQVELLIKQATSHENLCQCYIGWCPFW
# p110β/p85α = p110β/p85α (Homo sapiens (Human), UniProt P42338); test: PI 3-Kinase (human) HTRF assay, p110β/p85α; format: biochemical; conditions: read-out: PI3K β IC50
# Sequence of p110β/p85α (P42338 whole entry): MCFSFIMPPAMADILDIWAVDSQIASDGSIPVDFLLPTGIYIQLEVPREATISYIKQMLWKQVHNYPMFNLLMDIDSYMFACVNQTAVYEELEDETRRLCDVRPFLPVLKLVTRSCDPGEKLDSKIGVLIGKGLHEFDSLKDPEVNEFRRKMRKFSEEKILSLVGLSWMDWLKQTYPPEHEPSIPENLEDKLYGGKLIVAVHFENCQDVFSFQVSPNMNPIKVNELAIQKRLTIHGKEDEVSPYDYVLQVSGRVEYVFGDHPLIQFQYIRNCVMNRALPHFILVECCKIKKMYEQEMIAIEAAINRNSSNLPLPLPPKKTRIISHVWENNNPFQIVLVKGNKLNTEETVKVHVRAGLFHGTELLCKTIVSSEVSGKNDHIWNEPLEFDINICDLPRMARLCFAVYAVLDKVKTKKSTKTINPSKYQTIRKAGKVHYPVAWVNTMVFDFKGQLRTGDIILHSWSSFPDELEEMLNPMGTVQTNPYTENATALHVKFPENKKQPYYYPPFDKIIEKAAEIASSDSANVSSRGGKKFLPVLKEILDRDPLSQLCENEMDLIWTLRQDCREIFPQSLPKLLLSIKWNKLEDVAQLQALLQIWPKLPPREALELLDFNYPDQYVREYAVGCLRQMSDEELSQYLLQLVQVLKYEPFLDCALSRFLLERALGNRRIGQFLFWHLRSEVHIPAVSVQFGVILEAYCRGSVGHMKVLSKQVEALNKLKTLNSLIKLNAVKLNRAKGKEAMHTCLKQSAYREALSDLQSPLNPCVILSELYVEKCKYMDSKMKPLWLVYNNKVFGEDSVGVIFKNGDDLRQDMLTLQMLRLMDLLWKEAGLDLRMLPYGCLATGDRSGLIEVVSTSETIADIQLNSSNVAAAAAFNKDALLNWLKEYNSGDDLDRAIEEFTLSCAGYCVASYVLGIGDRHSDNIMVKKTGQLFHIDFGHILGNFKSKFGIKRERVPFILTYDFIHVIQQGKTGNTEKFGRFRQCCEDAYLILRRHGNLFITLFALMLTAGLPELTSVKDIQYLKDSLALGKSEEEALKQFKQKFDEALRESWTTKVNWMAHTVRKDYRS
# Sequence of p110β/p85α (P27986 whole entry partner): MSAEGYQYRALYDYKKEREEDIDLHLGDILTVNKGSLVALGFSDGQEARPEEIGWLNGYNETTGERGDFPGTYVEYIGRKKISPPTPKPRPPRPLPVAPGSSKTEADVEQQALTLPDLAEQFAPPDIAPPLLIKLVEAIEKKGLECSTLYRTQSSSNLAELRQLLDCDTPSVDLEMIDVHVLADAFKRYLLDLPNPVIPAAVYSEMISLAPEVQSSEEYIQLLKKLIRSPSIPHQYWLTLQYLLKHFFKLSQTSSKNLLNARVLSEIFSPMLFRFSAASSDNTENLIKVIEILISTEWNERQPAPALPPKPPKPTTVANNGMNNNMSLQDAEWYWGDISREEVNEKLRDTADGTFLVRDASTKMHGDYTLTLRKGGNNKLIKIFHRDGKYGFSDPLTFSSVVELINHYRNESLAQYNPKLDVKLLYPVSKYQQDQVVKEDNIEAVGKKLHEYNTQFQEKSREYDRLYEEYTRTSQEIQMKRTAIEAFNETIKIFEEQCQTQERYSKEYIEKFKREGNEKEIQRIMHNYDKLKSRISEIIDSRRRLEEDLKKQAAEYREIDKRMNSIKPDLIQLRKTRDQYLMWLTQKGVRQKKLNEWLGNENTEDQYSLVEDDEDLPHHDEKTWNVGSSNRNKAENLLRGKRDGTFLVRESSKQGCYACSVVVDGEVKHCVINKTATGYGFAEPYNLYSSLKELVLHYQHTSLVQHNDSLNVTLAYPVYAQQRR
# [1] = system: tumor cells with a PI3Kα mutation (e.g., MDA-MB-361 and T47D); test: Proliferation of tumor cells with PI3Kα mutation; format: cell-based; conditions: Homo sapiens; T47D cells; read-out: T47D proliferation IC50
# Sequence of p110δ/p85α (O00329 whole entry): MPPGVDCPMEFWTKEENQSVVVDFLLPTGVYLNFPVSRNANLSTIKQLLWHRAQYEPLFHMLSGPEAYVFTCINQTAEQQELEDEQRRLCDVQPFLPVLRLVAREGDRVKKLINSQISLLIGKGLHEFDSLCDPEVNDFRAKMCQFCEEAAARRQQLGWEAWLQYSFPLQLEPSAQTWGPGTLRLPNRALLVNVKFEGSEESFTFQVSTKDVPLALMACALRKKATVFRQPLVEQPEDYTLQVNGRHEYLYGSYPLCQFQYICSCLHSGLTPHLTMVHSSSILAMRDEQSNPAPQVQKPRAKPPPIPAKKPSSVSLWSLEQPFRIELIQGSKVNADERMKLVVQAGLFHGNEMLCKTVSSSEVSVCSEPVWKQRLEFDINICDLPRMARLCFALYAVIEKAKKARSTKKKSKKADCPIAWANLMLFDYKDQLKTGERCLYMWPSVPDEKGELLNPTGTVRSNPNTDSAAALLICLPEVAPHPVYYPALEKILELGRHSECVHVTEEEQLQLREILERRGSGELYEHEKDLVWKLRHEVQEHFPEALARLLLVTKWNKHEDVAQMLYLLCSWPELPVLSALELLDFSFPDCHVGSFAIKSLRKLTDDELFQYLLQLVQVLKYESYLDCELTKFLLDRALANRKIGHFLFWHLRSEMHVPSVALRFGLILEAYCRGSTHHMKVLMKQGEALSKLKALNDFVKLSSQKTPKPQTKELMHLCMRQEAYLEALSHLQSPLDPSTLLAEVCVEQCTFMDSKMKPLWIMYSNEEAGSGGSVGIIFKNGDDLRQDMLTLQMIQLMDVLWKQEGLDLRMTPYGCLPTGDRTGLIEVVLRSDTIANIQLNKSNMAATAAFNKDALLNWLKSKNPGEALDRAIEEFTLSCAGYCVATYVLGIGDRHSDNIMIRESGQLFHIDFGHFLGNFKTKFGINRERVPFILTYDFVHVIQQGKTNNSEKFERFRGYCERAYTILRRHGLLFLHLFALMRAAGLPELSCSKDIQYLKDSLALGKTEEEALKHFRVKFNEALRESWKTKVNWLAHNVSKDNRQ
# Sequence of p110δ/p85α (P27986 whole entry partner): as the sequence (P27986 whole entry partner) above
pIC50 (p110γ; in vitro),pIC50 (p110β/p85α; in vitro),pIC50 (p110α/p85α; in vitro),pIC50 (p110δ/p85α; in vitro),pIC50 [1],Compound,pIC50 (p110γ),pIC50 (p110δ/p85α),pIC50 (p110α/p85α),pIC50 (recombinant mTOR),pIC50 (p110β/p85α),pIC50 (recombinant mTOR; in vitro)
–,–,–,–,–,Nc1nc2ccc(-c3ccc4nccc(-c5ccncc5)c4c3)cc2s1 [compound 3],> 6.00,> 6.00,> 7.00,> 6.00,–,–
–,–,–,–,–,Nc1ccc2cc(-c3ccc4nccc(-c5ccncc5)c4c3)ccc2n1 [compound 5],> 6.00,> 5.00,> 6.00,> 6.00,–,–
–,–,–,–,–,Cn1cc(-c2ccnc3ccc(-c4ccc5oc(N)nc5c4)cc23)cn1 [compound 26],> 7.00,> 7.00,> 7.00,> 6.00,–,–
–,–,–,–,–,Nc1nc2cc(-c3ccc4nccn4c3)ccc2o1 [compound 40],> 5.00,–,> 5.00,> 5.00,–,–
–,–,–,–,–,CN1CCN(C(=O)c2cnc3ccc(-c4ccc5oc(N)nc5c4)cn23)CC1 [compound 44],> 5.00,> 5.00,> 7.00,> 5.00,–,–
–,–,–,–,–,N#Cc1cnc2ccc(-c3ccc4oc(N)nc4c3)cc2c1-c1ccncc1 [compound 46],> 7.00,> 7.00,> 7.00,> 7.00,–,–
–,–,–,–,–,Nc1nc2cc(-c3ccc4ncc(-c5ccnc(N6CCOCC6)c5)n4c3)ccc2o1 [compound 52],> 7.00,> 7.00,> 7.00,> 5.00,–,–
–,–,–,–,–,Nc1nc2cc(-c3ccc4ncc(=O)[nH]c4c3)ccc2o1 [compound 72],> 7.00,–,> 7.00,> 6.00,> 6.00,–
–,–,–,–,–,N#Cc1cnc2ccc(-c3ccc4oc(N)nc4c3)cc2c1Cl [compound 77],–,–,–,> 6.00,–,–
–,–,–,–,–,N#Cc1cnc2ccc(-c3ccc4oc(N)nc4c3)cc2c1 [compound 93],> 6.00,–,> 6.00,> 5.00,–,–
> 6.00,> 5.00,> 7.00,> 5.00,> 5.00,NC(=O)[C@H]1CCCN1C(=O)C1CN(c2cnc3ccc(-c4ccc5oc(N)nc5c4)cc3n2)C1 [compound 284],–,–,–,–,–,–
> 6.00,> 5.00,> 7.00,> 6.00,> 6.00,CC(C)N1CCN(C(=O)C2CN(c3cnc4ccc(-c5ccc6oc(N)nc6c5)cc4n3)C2)CC1 [compound 285],–,–,–,–,–,–
> 7.00,> 6.00,> 7.00,> 6.00,> 6.00,Nc1nc2cc(-c3ccc4ncc(N5CCN(C(=O)C6(N)CCC6)CC5)nc4c3)ccc2o1 [compound 286],–,–,–,–,–,–
> 6.00,> 5.00,> 7.00,> 6.00,> 5.00,Nc1nc2cc(-c3ccc4ncc(N5CC(C(=O)N6CCN(CC7CC7)CC6)C5)nc4c3)ccc2o1 [compound 287],–,–,–,–,–,–
> 5.00,> 6.00,> 6.00,> 6.00,> 5.00,Nc1nc2cc(-c3ccc4ncc(C(=O)NCCCN5CCOCC5)n4c3)ccc2o1 [compound 288],–,–,–,–,–,–
> 6.00,> 6.00,> 7.00,> 7.00,> 6.00,Nc1nc2cc(-c3ccc4ncc(C(=O)NCCCN5CCCC5)n4c3)ccc2o1 [compound 293],–,–,–,–,–,–
> 7.00,> 6.00,> 7.00,> 7.00,> 6.00,Nc1nc2cc(-c3ccc4ncc(N5CCN(C(=O)[C@H](N)CO)CC5)nc4c3)ccc2o1 [compound 299],–,–,–,–,–,–
> 5.00,> 5.00,> 7.00,> 6.00,> 6.00,Nc1nc2cc(-c3ccc4ncc(N5CC(N6CCN(CCO)CC6)C5)nc4c3)ccc2o1 [compound 333],–,–,–,–,–,–

Compound,pIC50 (p110γ; in vitro),pIC50 (p110β/p85α; in vitro),pIC50 (p110α/p85α; in vitro),pIC50 (p110δ/p85α; in vitro),pIC50 [1],pIC50 (p110γ),pIC50 (p110δ/p85α),pIC50 (p110α/p85α),pIC50 (recombinant mTOR),pIC50 (p110β/p85α),pIC50 (recombinant mTOR; in vitro)
CC(C)Oc1nc(-c2ccc3oc(N)nc3c2)cnc1N [compound 237],> 5.00,> 5.00,> 5.00,–,–,–,–,–,–,–,> 6.00
Nc1nc2cc(-c3ccc4ncc(N5CC(n6cccn6)C5)nc4c3)ccc2o1 [compound 318],> 6.00,> 5.00,> 7.00,–,–,–,–,–,–,–,> 6.00
COC(=O)N1CCC(n2ncc3c(N4CCOCC4)nc(-c4ccc5oc(N)nc5c4)nc32)CC1 [compound 330],–,> 5.00,> 6.00,–,–,–,–,–,–,–,> 6.00
